The record followed here is patent publication US20090088432A1, “Thiazolinones and Oxazolinones and their Use as Ptp1b Inhibitors” (priority 2005, published 2009).

In the assay the target is T1, Recombinant human Protein-tyrosine phosphatase1B (PTP1B) (Homo sapiens, UniProt P18031).
T1 construct: Recombinant human Protein-tyrosine phosphatase1B (PTP1B) (amino acid 1-322 Biomol, USA); purchased Biomol, USA
T1 sequence (P18031 1-322): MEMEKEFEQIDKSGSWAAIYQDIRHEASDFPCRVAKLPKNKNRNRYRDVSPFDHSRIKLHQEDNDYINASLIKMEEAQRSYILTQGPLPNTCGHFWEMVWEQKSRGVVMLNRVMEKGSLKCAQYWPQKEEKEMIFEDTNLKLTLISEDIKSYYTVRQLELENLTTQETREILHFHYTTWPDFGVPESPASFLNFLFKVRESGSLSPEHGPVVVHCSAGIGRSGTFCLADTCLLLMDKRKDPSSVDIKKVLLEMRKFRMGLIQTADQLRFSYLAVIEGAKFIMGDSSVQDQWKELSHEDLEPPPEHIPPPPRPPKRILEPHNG
Nature of the assay: PTP1B enzyme inhibition assay (pNpp substrate). It is filed as biochemical. The conditions noted are these: inhibition of recombinant human PTP1B, pNpp 5 mM, 30 mins at 25° C; inhibitor concentration not given. The method, boiled down: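 Recombinant human PTP1B (0.016 μg/well) preincubated with compound 30 min at 25 °C in 50 mM HEPES pH 7.4, 1 mM EDTA, 1 mM DTT, 0.05% Igepal, 1% DMSO final. Reaction started with 5 mM pNpp, run 30 min at 25 °C; p-nitrophenol read at 410 nm.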

For `O=C([O-])CCc1ccc(NC2=NC(=O)C(=Cc3ccc4ccccc4c3)S2)cc1.[Na+]` [Compound 89, 3-[4-(5-Naphthalen-2-ylmethylene-4-oxo-4,5-dihydro-thiazol-2-ylamino)-phenyl]-sodium propionate], the “Activity Score” value is “(+) (+ = 10-20% inhibition)”.

Regarding `O=C(O)COc1ccc(-c2ccc(C=C3SC(Nc4ccc(CC(=O)O)cc4)=NC3=O)cc2)cc1` [Compound 201, {4-[5-(4′-Carboxymethoxy-biphenyl-4-ylmethylene)-4-oxo-4,5-dihydro-thiazol-2-ylamino]-phenyl}-acetic acid], the “Activity Score” value is on record as “(+++) (+++ = >50% inhibition)”.

As for `O=C(Cc1ccc(NC2=NC(=O)C(=Cc3ccc(-c4ccccc4)cc3)S2)cc1)NS(=O)(=O)c1cccs1.[Na]` [Compound 223, Thiophene-2-sulfonic acid {2-[4-(5-biphenyl-4-ylmethylene-4-oxo-4,5-dihydro-thiazol-2-ylamino)-phenyl]-acetyl}-amide, sodium salt], the “Activity Score” value was “(++) (++ = 20-50% inhibition)”.

On to `O=C(O)Cc1ccc(NC2=NC(=O)C(=Cc3cccc(-n4cccn4)c3)S2)cc1` [Compound 91, {4-[4-Oxo-5-(3-pyrazol-1-yl-benzylidene)-4,5-dihydro-thiazol-2-ylamino]-phenyl}-acetic acid], for which the “Activity Score” value was “(++) (++ = 20-50% inhibition)”.

Regarding `COc1cc(C=C2SC(Nc3ccc(CC(=O)O)cc3)=NC2=O)cc(OC)c1O` [Compound 56, {4-[c-(4-hydroxy-3,5-dimethoxy-benzylidene)-4-oxo-4,5-dihydro-thiazol-2-ylamino]-phenyl}-acetic acid], the “Activity Score” value is on record as “(+) (+ = 10-20% inhibition)”.

With `O=C(O)Cc1ccc(NC2=NC(=O)C(=Cc3ccc(-c4nnn[nH]4)cc3)S2)cc1` [Compound 19, (4-{4-Oxo-5-[4-(1H-tetrazol-5-yl)-benzylidene]-4,5-dihydro-thiazol-2-ylamino}-phenyl)-acetic acid], the “Activity Score” value is listed as “(+++) (+++ = >50% inhibition)”.

Regarding `O=C1N=C(Nc2ccc(CC(C(=O)O)C(=O)O)cc2)SC1=Cc1ccc(-c2ccccc2)cc1` [Compound 67, 2-[4-(5-Biphenyl-4-ylmethylene-4-oxo-4,5-dihydro-thiazol-2-ylamino)-benzyl]-malonic acid], the “Activity Score” value is reported as “(++) (++ = 20-50% inhibition)”.

For `CC(C)Oc1cc2ccccc2cc1C=C1SC(Nc2cccc(CC(=O)O)c2)=NC1=O` [Compound 21, {3-[5-(3-Isopropoxy-naphthalen-2-ylmethylene)-4-oxo-4,5-dihydro-thiazol-2-ylamino]-phenyl}-acetic acid], the “Activity Score” value is “(+++) (+++ = >50% inhibition)”.

Turning to `CC(C(=O)O)c1ccc(NC2=NC(=O)C(=Cc3ccc4ccccc4c3)S2)cc1` (stereo not drawn) [Compound 53, 2-[4-(5-Naphthalen-2-yl-ethylene-4-oxo-4,5-dihydro-thiazol-2-ylamino)-phenyl]-propionic acid], the “Activity Score” value was “(++) (++ = 20-50% inhibition)”.

Turning to `O=C(O)Cc1ccc(NC2=NC(=O)C(=Cc3ccc(-c4ccccc4)cc3)S2)cc1C(=O)O` [Compound 200, 5-(5-Biphenyl-4-ylmethylene-4-oxo-4,5-dihydro-thiazol-2-ylamino)-2-carboxymethyl-benzoic acid], the “Activity Score” value is listed as “(+++) (+++ = >50% inhibition)”.

In the case of `Cc1ccc(S(=O)(=O)NC(=O)Cc2ccc(NC3=NC(=O)C(=Cc4cc5ccccc5cc4OCc4ccccc4)S3)cc2)cc1` [Compound 26, N-(2-{4-[5-(3-Benzyloxy-naphthalen-2-ylmethylene)-4-oxo-4,5-dihydro-thiazol-2-ylamino]-phenyl}-acetyl)-4-methyl-benzenesulfonamide], the “Activity Score” value is listed as “(+) (+ = 10-20% inhibition)”.

Regarding `Cc1ccc(S(=O)(=O)NC(=O)Cc2ccc(NC3=NC(=O)C(=Cc4cc5ccccc5cc4OCC(=O)O)S3)cc2)cc1` [Compound 213, [3-(4-Oxo-2-{4-[2-oxo-2-(toluene-4-sulfonylamino)-ethyl]-phenylamino}-4H-thiazol-5-ylidenemethyl)-naphthalen-2-yloxy]-acetic acid], the “Activity Score” value is reported as “(++) (++ = 20-50% inhibition)”.

Consider `O=C(O)CCc1ccc(NC2=NC(=O)C(=Cc3cc4ccccc4cc3OCc3ccccc3)S2)cc1` [Compound 49, 3-{4-[5-(3-Benzyloxy-naphthalen-2-ylmethylene)-4-oxo-4,5-dihydro-thiazol-2-ylamino]-phenyl}-propionic acid], for which the “Activity Score” value is listed as “(++) (++ = 20-50% inhibition)”.

Regarding `O=C(Cc1ccc(NC2=NC(=O)C(=Cc3ccc(-c4ccccc4)cc3)S2)cc1)NS(=O)(=O)c1ccc(F)cc1.[Na]` [Compound 224, N-{2-[4-(5-Biphenyl-4-ylmethylene-4-oxo-4,5-dihydro-thiazol-2-ylamino)-phenyl]-acetyl}-4-fluoro-benzenesulfonamide, sodium salt], the “Activity Score” value was “(++) (++ = 20-50% inhibition)”.

Turning to `O=C(O)Cc1csc(NC2=NC(=O)C(=Cc3ccc(-c4ccccc4)cc3)S2)n1` [Compound 130, [2-(5-Biphenyl-4-ylmethylene-4-oxo-4,5-dihydro-thiazol-2-ylamino)-thiazol-4-yl]-acetic acid], the “Activity Score” value is “(++) (++ = 20-50% inhibition)”.

`O=C(O)Cc1ccc(NC2=NC(=O)C(=Cc3ccc(-n4cnnn4)cc3)S2)cc1` [Compound 45, {4-[4-Oxo-5-(4-tetrazol-1-yl-benzylidene)-4,5-dihydro-thiazol-2-ylamino]-phenyl}-acetic acid]: the “Activity Score” value is given as “(+++) (+++ = >50% inhibition)”.

As to `O=C(O)CC(C(=O)O)c1ccc(NC2=NC(=O)C(=Cc3ccc(-c4ccccc4)cc3)S2)cc1` (stereo not drawn) [Compound 55, 2-[4-(5-Biphenyl-4-ylmethylene-4-oxo-4,5-dihydro-thiazol-2-ylamino)-phenyl]-succinic acid], the “Activity Score” value is listed as “(++) (++ = 20-50% inhibition)”.

Consider `COc1cc(C=C2SC(Nc3ccc(CC(=O)O)cc3)=NC2=O)cc(OC)c1OC` [Compound 59, {4-[4-Oxo-5-(3,4,5-trimethoxy-benzylidene)-4,5-dihydro-thiazol-2-ylamino]-phenyl}-acetic acid], for which the “Activity Score” value is reported as “(+++) (+++ = >50% inhibition)”.

Regarding `O=C(O)Cc1ccc(NC2=NC(=O)C(=Cc3cc4ccccc4cc3O)S2)cc1` [Compound 32, {4-[5-(3-Hydroxy-naphthalen-2-ylmethylene)-4-oxo-4,5-dihydro-thiazol-2-ylamino]-phenyl}-acetic acid], the “Activity Score” value is listed as “(+++) (+++ = >50% inhibition)”.

`O=C1N=C(Nc2ccc(Cc3nnn[nH]3)cc2)SC1=Cc1cc2ccccc2cc1OCc1ccccc1` [Compound 33, 5-(3-Benzyloxy-naphthalen-2-ylmethylene)-2-[4-(1H-tetrazol-5-ylmethyl)-phenylamino]-thiazol-4-one]: the “Activity Score” value is reported as “(+) (+ = 10-20% inhibition)”.

As to `O=C([O-])Cc1ccc(NC2=NC(=O)C(=Cc3cc4ccccc4cc3OCc3ccc(F)cc3)S2)cc1.[Na+]` [Compound 113, (4-{5-[3-(4-Fluoro-benzyloxy)-naphthalen-2-ylmethylene-4-oxo-4,5-dihydro-thiazol-2-ylamino)-phenyl]-acetyl}-sodium acetate], the “Activity Score” value is “(+++) (+++ = >50% inhibition)”.

For the molecule `O=C(O)Cc1csc(NC2=NC(=O)C(=Cc3cc4ccccc4cc3OCc3ccccc3)S2)n1` [Compound 133, {2-[5-(3-Benzyloxy-naphthalen-2-ylmethylene)-4-oxo-4,5-dihydro-thiazol-2-ylamino]-thiazol-4-yl}-acetic acid], the “Activity Score” value is reported as “(+++) (+++ = >50% inhibition)”.

As for `O=C(O)Cc1ccc(NC2=NC(=O)C(=Cc3cccc(N4C(=O)c5ccccc5C4=O)c3)S2)cc1` [Compound 50, (4-{5-[3-(1,3-Dioxo-1,3-dihydro-isoindol-2-yl)-benzylidene]-4-oxo-4,5-dihydro-thiazol-2-ylamino}-phenyl)-acetic acid], the “Activity Score” value is listed as “(+++) (+++ = >50% inhibition)”.

Turning to `O=C(O)Cc1ccc(NC2=NC(=O)C(=Cc3ccccc3)S2)cc1` [Compound 5, [4-(5-Benzylidene-4-oxo-4,5-dihydro-thiazol-2-ylamino)-phenyl]-acetic acid], the “Activity Score” value is “(+) (+ = 10-20% inhibition)”.
